Reference: the NIST ThermoML archive (doi:10.1021/je4007184)
± gives the expanded uncertainty stated by the source.

Legend:
[1] = refractive index (Na D-line) (dimensionless); settings: 298.15 K; 101.33 kPa; Liquid; Standard Abbe refractometry
[2] = Boiling temperature at pressure P; settings: 101 kPa; Liquid; Ebulliometric method (Recirculating still)
[3] = 298.15 K; 101.33 kPa; Liquid; Pycnometric method

refractive index [1] | Boiling temperature at pressure P [2] [°C] | mass density [3] [kg/m3] | SMILES
1.3821 ± 0.0005 | 101.5 ± 0.4 | 882.8 ± 0.68 | CCCOC(C)=O [propyl ethanoate]
1.4155 ± 0.0005 | 131.1 ± 0.4 | 811.04 ± 0.6 | CC(C)CCO [3-methylbutan-1-ol]
1.4048 ± 0.0005 | 119.1 ± 0.4 | 806.57 ± 0.61 | CCCC(C)O (configuration not stated) [pentan-2-ol]
1.4078 ± 0.0005 | 137.8 ± 0.4 | 810.12 ± 0.6 | CCCCCO [pentan-1-ol]
